Test results: US5457106A, “Pyridine derivatives, their production and use” (Takeda Chemical Industries, Ltd., priority 1991, dated 1995)
Counter-ions that a name gives are not always drawn. Like-named read-outs stand apart in the source and are kept apart here.

Columns and labels:
[1] = system: Mouse acetic acid writhing; test: Mouse acetic acid writhing inhibitory activity; assay type: in vivo, mouse (Slc: ICR); conditions: orally; for inhibition in vivo at 50 mg/kg: Mus musculus, po, 20 min, read-out: Inhibitory percentage (acetic acid writhing); for Inhibitory percentage (acetic acid writhing): 50 mg/kg, hydrochloride
Experimental: Mouse Acetic Acid Writhing Inhibitory Activity
Ten male Slc: ICR mice, 4 weeks old, per 1 group were used. A test compound was administered orally, and after 30 minutes, 0.1 ml/10 g body weight of physiological saline containing 0.6% acetic acid was injected intraperitoneally. For 20 minutes, writhing (in agony condition) response by administration of acetic acid was counted regarding individual animals. The inhibitory percentage relative to the mean response counts of a control group was calculated regarding respective animals in a test compound administration group. The test compound was suspended in 5% gum arabic solution, and the administration volume was 0.2 ml/10 g.

5-Lipoxygenase = molecular target: T1, 5-Lipoxygenase (Rattus norvegicus, UniProt P12527); test: 5-Lipoxygenase inhibitory activity in rat basophilic leukemia cells; assay type: cell-based
T1 construct: rat basophilic leukemia cell suspension; endogenous in cells
T1 sequence (P12527 1-673): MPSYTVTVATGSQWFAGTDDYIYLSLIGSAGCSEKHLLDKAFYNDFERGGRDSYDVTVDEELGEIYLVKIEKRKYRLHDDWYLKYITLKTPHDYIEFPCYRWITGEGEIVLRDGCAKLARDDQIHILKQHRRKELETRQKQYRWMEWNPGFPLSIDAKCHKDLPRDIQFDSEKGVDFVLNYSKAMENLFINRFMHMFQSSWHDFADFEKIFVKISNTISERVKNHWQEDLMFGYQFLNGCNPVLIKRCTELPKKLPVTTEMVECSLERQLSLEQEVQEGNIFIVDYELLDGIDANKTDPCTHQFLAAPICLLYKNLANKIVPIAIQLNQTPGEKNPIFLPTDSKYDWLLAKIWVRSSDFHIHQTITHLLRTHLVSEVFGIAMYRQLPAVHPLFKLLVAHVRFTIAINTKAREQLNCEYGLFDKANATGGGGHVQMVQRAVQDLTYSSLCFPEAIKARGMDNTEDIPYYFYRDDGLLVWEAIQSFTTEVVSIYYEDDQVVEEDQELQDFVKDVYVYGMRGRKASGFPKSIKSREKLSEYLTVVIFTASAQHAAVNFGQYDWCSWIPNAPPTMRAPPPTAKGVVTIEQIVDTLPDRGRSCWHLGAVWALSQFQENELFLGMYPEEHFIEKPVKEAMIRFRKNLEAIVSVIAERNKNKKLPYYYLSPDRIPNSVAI
Experimental: 5-Lipoxygenase Inhibitory Activity […] Then, 0.1 ml of mast cell medium containing 50 μg of arachidonic acid and 1 μg of calcium ionophore (A-23187) were added and the mixture was allowed to stand at 37° C. for 15 minutes. Ethanol (1 ml) was added thereto and the mixture was shaken well, and filtered (Membrane filter, 0.45 μm). […] As a control, the measurement was carried out according to the same manner except that 0.01 ml of the solvent used for dissolving the test compound was used in place of the test compound. The inhibitory percentage (%) was calculated from the following equation to obtain IC50.

[2] = system: Rat carrageenin pedal edema; test: Rat carrageenin pedal edema inhibitory activity; assay type: in vivo, rat (Jcl: SD); conditions: Rattus norvegicus, po, 3 h, 50 mg/kg, orally, 3 hours after carrageenin; read-out: Inhibitory percentage (carrageenin pedal edema)
Experimental: Rat Carrageenin Pedal Edema Inhibitory Activity A Jcl: SD male rat (6 weeks old, weight 160-220 g) was used. After the mesurement of the volume of the dexter hind limb foot pad, a test compound suspended in 5% gum arabic solution was administered orally. Immediately after the administration, water was further administered orally so that the total administration volume of liquid became 5 ml/rat. After one hour, 0.05 ml of 1% carrageenin suspension in physiological saline was injected subcutaneously in the foot pad to induce edema [Winter, […]. and Nuss, G. W.: Proc. Soc. exp. […] Three hours after injection of carrageenin, the volume of the dexter limb was measured, and the edema volume was calculated by the difference between the volume after injection and the volume prior to injection.

cyclooxygenase = molecular target: T2, cyclooxygenase (Rattus norvegicus, UniProt Q63921); test: Cyclooxygenase inhibitory activity (HHT formation from arachidonic acid in rat platelet-rich plasma); assay type: cell-based, rat (Jcl:wistar)
T2 construct: from tissue; host or cells: platelets in platelet-rich plasma from rat abdominal aorta blood (Jcl:wistar, male)
T2 sequence (Q63921 27-602): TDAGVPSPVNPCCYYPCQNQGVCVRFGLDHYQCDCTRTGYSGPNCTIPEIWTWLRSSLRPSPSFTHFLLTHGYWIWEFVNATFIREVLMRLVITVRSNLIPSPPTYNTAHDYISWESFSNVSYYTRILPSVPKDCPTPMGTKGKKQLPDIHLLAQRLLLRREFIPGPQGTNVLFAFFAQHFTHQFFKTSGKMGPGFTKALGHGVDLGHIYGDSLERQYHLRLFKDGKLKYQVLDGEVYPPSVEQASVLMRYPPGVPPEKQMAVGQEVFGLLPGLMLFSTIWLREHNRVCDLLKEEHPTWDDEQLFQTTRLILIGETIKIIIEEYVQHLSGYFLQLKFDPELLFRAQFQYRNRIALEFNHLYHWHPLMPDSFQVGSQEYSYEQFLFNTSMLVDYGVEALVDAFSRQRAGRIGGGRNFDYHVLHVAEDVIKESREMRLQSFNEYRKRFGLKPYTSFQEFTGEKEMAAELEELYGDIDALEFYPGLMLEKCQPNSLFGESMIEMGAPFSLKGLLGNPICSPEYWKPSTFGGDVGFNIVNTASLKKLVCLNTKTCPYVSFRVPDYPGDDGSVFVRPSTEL

[3] = system: ART (antigen-responding T-cell); test: In vitro ART (antigen-responding T-cell) proliferation test; assay type: cell-based, Lewis rat; conditions: Rattus norvegicus, T-cell, read-out: % Inhibition of ART growth
[4] = system: Mouse phenylquinone writhing; test: Mouse phenylquinone writhing inhibitory activity; assay type: in vivo, mouse (Slc: ICR); conditions: Mus musculus, po, 20 min, orally, read-out: Inhibitory percentage (phenylquinone writhing)
Outline: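 Male ICR mice (4 weeks, 17–24 g) dosed orally with compound suspended in 5% gum arabic. After 30 min, 0.02% phenylquinone (0.1 ml/10 g) given i.p.; writhing and stretching responses counted over 20 min.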

ICAM-1 = test: Adhesion protein expression inhibitory activity, ICAM-1; assay type: cell-based; conditions: human umbilical vascular endothelial cells, TNF-α, 360 min
Experimental: Adhesion Protein Expression Inhibitory Activity The various concentrations of test compounds were added to the human umbilical cord-derived vascular endothelial cells [sold by Klabo] which were seeded in the gelatin coat plate and the mixture was incubated at 37° C. for 15 minutes. Then, the human tumor necrosis factor-α[TNF-α; sold by Genzyme] was added therein to the final concentration of 1 ng/ml and incubation was carried out at 37° C. for 3 hours for expression of ELAM-1 and for 6 hours for that of ICAM-I. After the reaction, the cells were fixed using glutaraldhyde and the expression amount of ELAM-1 and ICAM-1 was measured by the cell-ELISA method. That is, the expression was determined by […] the adhesion proteins on the cells in the system using anti-ELAM-1 antibody BBA-2 and anti-ICAM-1 antibody BBA4 as the first antibody as well as horseradish peroxidase-labeled rabbit anti-mouse IgG antibody as the second antibody.

[5] = 5-HETE, read-out: 5-Lipoxygenase inhibitory activity, 5-HETE IC50
[6] = LTB4, read-out: 5-Lipoxygenase inhibitory activity, LTB4 IC50

IC50 (5-Lipoxygenase; [5]) [µM]	IC50 (5-Lipoxygenase; [6]) [µM]	Compound	inhibition at 1 µM [3] [%]	inhibition at 10 µM [3] [%]	other results
–	–	O=c1c2ccccc2oc(=S)n1CCSc1ccncc1 [Example 170, 4-[2-[2H-1,3-benzoxadine-2-thion-4(3H)-on]ethylthio]pyridine]	–	–	inhibition in vivo at 50 mg/kg [1]: 91%
6.1	5.4	O=C(NCCCCSc1ccncc1)c1cc2ccccc2s1 [Example 128, 4-[4-(thianaphthene-2-carbonylamino)butylthio]pyridine]	–	–	–
4.6	4.3	O=C(c1cc2ccccc2s1)N1CCC(Sc2ccncc2)CC1 [Example 133, 4-[4-(thianaphthene-2-carbonyl)piperidylthio]pyridine]	–	–	inhibition in vivo at 50 mg/kg [2]: 27%
17.5	14.3	CCCCCCCCCCCC(=O)NCCCSc1ccncc1 [Example 17, 4-[3-(lauroylamino)propylthio]pyridine]	–	–	IC50 (cyclooxygenase): 1.5 µM
1.4	1.2	O=C1c2ccccc2CN1CCCCSc1ccncc1 [Example 109, 4-[4-(isoindolin-1-on-2-yl)butylthio]pyridine]	-11	-33	inhibition in vivo at 50 mg/kg [2]: 25%; inhibition in vivo at 50 mg/kg [4]: 89%; IC50 (cyclooxygenase): 6.2 µM
–	–	O=c1c2ccccc2n(CCCCSc2ccccn2)c(=O)n1CCCCSc1ccccn1 [Example 198, 1,3-bis[4-(2-pyridylthio)butyl]quinazoline-2,4(1H,3H)-dione]	–	–	Expression Inhibitory Potency, ICAM-1 (ICAM-1; 13 μM): 25%
16.8	16.1	CCCCCCCCCC(=O)NCCCSc1ccncc1 [Example 1]	–	–	inhibition in vivo at 100 mg/kg ([4]; 100 mg/kg): 61%; IC50 (cyclooxygenase): 1.6 µM
1.8	1.1	O=C1SC(=Cc2ccc(Cl)cc2)C(=O)N1CCCCSc1ccncc1 [Example 151, 4-[4-[5-(4-chlorobenzylidene)-2,4-thiazolidinedione]butylthio]pyridine]	-1	74	Expression Inhibitory Potency, ICAM-1 (ICAM-1; 30 μM): 60%
0.044	0.033	O=C1c2ccc([N+](=O)[O-])cc2C(=O)N1CSc1ccncc1 [Example 95, 4-[(4-nitrophthalimido)methylthio]pyridine]	20	32	–
2.4	2	CCCCCCCCCCCCN(CCCSc1ccncc1)C(=O)C(F)(F)F [Example 94, 4-[3-(N-dodecyl-N-trifluoroacetylamino)propylthio]pyridine]	33	70	–
–	–	CC1(C)OC(=O)N(CSc2ccncc2)C1=O [Example 179, 4-(5,5-dimethyloxazolidine-2,4-dionemethylthio)pyridine hydrochloride]	–	–	Inhibitory percentage (acetic acid writhing) [1]: 66%
17.4	11.8	O=C1c2ccccc2C(=O)N1CCSc1ccccn1 [Example 4, 2-(2-phthalimidoethylthio)pyridine]	–	–	–
3.5	3.2	O=C(c1ccccc1)N(CCCSc1ccncc1)Cc1ccccc1 [Example 77, 4-[3-(N-benzyl-N-benzoylamino)propylthio]pyridine hydrochloride]	28	85	inhibition in vivo at 50 mg/kg [4]: 62%
3.8	3.7	O=C1SC(=Cc2ccccc2)C(=O)N1CCSc1ccncc1 [Example 155, 4-[2-(5-benzylidene-2,4-thiazolidinedione)ethylthio]pyridine]	4	78	–
21.5	16.4	CCCCCCCC/C=C\CCCCCCCC(=O)NCCCSc1ccncc1 [Example 21, 4-[3-(oleoylamino)propylthio]pyridine]	–	–	–
–	–	O=C(NCCSc1ccncc1)c1cc2ccccc2s1 [Example 123, 4-[2-(thianaphthene-2-carbonylamino)ethylthio]pyridine]	15	66	Expression Inhibitory Potency, ICAM-1 (ICAM-1; 30 μM): 34%; IC50 (cyclooxygenase): 3.3 µM
–	–	O=C1CSC(=O)N1CSc1ccncc1 [Example 176, 4-(2,4-thiazolidinedionemethylthio)pyridine hydrochloride]	–	–	Inhibitory percentage (acetic acid writhing) [1]: 87%
–	–	CC1(C)OC(=O)N(CCCCSc2ccncc2)C1=O [Example 167, 4-(4-(5,5-dimethyloxazolidine-2,4-dione)butylthio]pyridine]	–	–	inhibition in vivo at 50 mg/kg [1]: 62%
22.2	17.5	CCCCCCCCCC(=O)NCCCSc1ccccn1 [Example 3, 2-[3-(caprylamino)propylthio]pyridine]	–	–	–
2.3	2.2	O=c1c2ccccc2n(Cc2ccccc2)c(=O)n1CCCCSc1ccncc1 [Example 149, 3-[4-(4-pyridylthio)butyl]-1-benzylquinazolin-2,4-(1H,3H)-dione]	-10	19	–
